The subject of the experiment is Mycobacterium tuberculosis. In words: Antimycobacterial activity against Mycobacterium bovis BCG after 6 days by Microdilution Resazurin assay. To be noted: variant bovis BCG, 144 h. Format: functional. On the technique in general: Dilution methods test growth across graded concentrations, often in twofold steps.

The structures appear in SMILES notation. ≈ marks a conversion by molar mass, not a printed value.

`CC1(C)C=Cc2c(ccc3oc4c(O)cccc4c23)O1` gave an MIC95 of 94 µM (≈ 25 µg/mL).

The molecule `COc1cccc2oc3ccc4c(c3c12)C=CC(C)(C)O4` gave an MIC95 of 89 µM (≈ 24.9 µg/mL).

In turn, `CC1(C)C=Cc2c(ccc3oc4ccccc4c23)O1` had an MIC95 of 100 µM (≈ 25 µg/mL).

Regarding `CC1(C)C=Cc2c(ccc3oc4c(Cl)cccc4c23)O1`, the MIC95 was > 350 µM.

Turning to `COc1ccc2oc3cc4c(cc3c2c1)OC(C)(C)C=C4`, the MIC95 stood at 89 µM (≈ 24.9 µg/mL).

Turning to `CC1(C)C=Cc2c(ccc3oc4cccc(Cl)c4c23)O1`, the MIC95 is > 350 µM.

On to `CC1(C)C=Cc2c(ccc3oc4cc(-c5ccc6c(c5)oc5ccc7c(c56)C=CC(C)(C)O7)ccc4c23)O1`, for which the MIC95 was > 200 µM.

In turn, `COc1ccc2oc3ccc4c(c3c2c1)C=CC(C)(C)O4` showed an MIC95 of 89 µM (≈ 24.9 µg/mL).

For `CC1(C)C=Cc2c(ccc3oc4cc(O)ccc4c23)O1`, the MIC95 came out at 94 µM (≈ 25 µg/mL).

`COc1cccc2c1oc1ccc3c(c12)C=CC(C)(C)O3` registered an MIC95 of 89 µM (≈ 24.9 µg/mL).

Molecule `CC1(C)CCc2c(ccc3oc4ccc(O)cc4c23)O1` registered an MIC95 of 140 µM (≈ 37.6 µg/mL).

For the molecule `CC(=O)c1ccc2oc3ccc4c(c3c2c1)CCC(C)(C)O4`, the MIC95 is > 340 µM.

Consider `CC1(C)C=Cc2c(ccc3c2oc2ccc4c(c23)C=CC(C)(C)O4)O1`, for which the MIC95 was > 300 µM.

In turn, `CC1(C)C=Cc2c(ccc3oc4ccc(Cl)cc4c23)O1` had an MIC95 of 100 µM (≈ 28.5 µg/mL).

In turn, `CC1(C)C=Cc2c(ccc3oc4cc(Br)ccc4c23)O1` came in with an MIC95 of 150 µM (≈ 49.4 µg/mL).

Molecule `CC1(C)C=Cc2c(ccc3oc4ccc(O)cc4c23)O1` gave an MIC95 of 79 µM (≈ 21 µg/mL).

Molecule `NNC(=O)c1ccncc1` [ISONIAZID] gave an MIC95 of 4.4 µM (≈ 0.603 µg/mL).

For `CC1(C)C=Cc2c(ccc3oc4cccc(O)c4c23)O1`, the MIC95 came to 94 µM (≈ 25 µg/mL).

Take `COc1ccc2c(c1)oc1ccc3c(c12)C=CC(C)(C)O3`: the MIC95 is > 360 µM.

The record behind these values is ChEMBL document CHEMBL1629514, “Synthesis, biological activity, and evaluation of the mode of action of novel antitubercular benzofurobenzopyrans substituted on A ring” (Eur J Med Chem, 2010).
